{
  "source": "paper PMC8379256",
  "about": "“A xanthene derivative, DS20060511, attenuates glucose intolerance by inducing skeletal muscle-specific GLUT4 translocation in mice” (Communications Biology, 2021)",
  "key": {"AMPKα": {"test_system": "AMPKα", "assay": "AMPKα phosphorylation in triceps surae muscle in vivo", "design": "species or system mouse", "details": "no-exercise condition, 10 mg kg−1, Fig. 6c", "method": "The tissue sample was homogenized with a Polytron homogenizer and lysed in a lysis buffer (25 mM Tris-HCl, pH 7.4, 100 mM NaF, 50 mM Na4P2O7, 10 mM EGTA, 10 mM EDTA, 10 mM Na3VO4, 1 mM PMSF, and 1% NP-40) on ice, and the lysate was centrifuged at 17,860 × g for 10 min at 4 °C. The supernatant was collected and the protein concentrations were determined by BCA assay (Thermo Fisher Scientific). Immunoprecipitation of IRβ and IRS1 was performed as described previously, using specific antibodies against IRβ (sc-711, Santa Cruz Biotechnology, Dallas, TX), IRS1 (06-248, Merck Millipore, Burlington, MA), and for detection of phosphotyrosine (05-321, Merck Millipore). Five milligrams of the extracts were incubated with specific antibodies against IRS1 for 1 h at 4 °C. Then, protein G-Sepharose was added, followed by incubation for 2 h at 4 °C. After washing three times, the immunocomplexes were subjected to immunoblotting.\nPhosphorylated or total protein of IRβ and IRS1 was resolved on 7% SDS-PAGE and analyzed using specific antibodies against IRβ, IRS1, and phosphotyrosine. […] Bound antibodies were detected with HRP-conjugated secondary antibodies using ECL detection reagents (GE Healthcare, Chicago, IL)."}, "STZ-treated C57BL/6 mice": {"test_system": "STZ-treated C57BL/6 mice", "assay": "Insulin tolerance test (ITT) in STZ-treated C57BL/6 mice", "type": "in vivo, mouse", "details": "for Blood glucose: ITT", "method": "Arrowheads indicate the characteristic ruffled structure of the polymerized actin and actin-associated surface GLUT4. d GLUT4 translocation activity of 30 μM DS20060511 or 100 nM insulin in the presence of the actin polymerization inhibitor, Latrunculin B, at the indicated concentrations. Values shown are means ± SEM, n = 3. **P < 0.01 vs. 0 nM Latrunculin B by one-way ANOVA followed by Dunnett’s test. e Concentration-dependent insulin-stimulated GLUT4 translocation in L6-GLUT4myc myotubes with or without 30 μM DS20060511 (n = 3). f Concentration-dependent DS20060511-stimulated 2-DG uptake with 100 nM insulin in isolated muscles from C57BL/6 mice (n = 3). Values shown are means ± SEM. ***P < 0.001 by one-way ANOVA followed by Tukey’s test. g Blood glucose levels during ITT in STZ-treated C57BL/6 mice (n = 6–7). Vehicle or indicated dose of DS20060511 was given orally at the same time as 0.1 U kg^−1 insulin injection intraperitoneally. Values shown are means ± SEM. *P < 0.05 vs. vehicle by one-way ANOVA followed by Dunnett’s test. c Scale bar in all panels, 5 μm. Uncropped blots for a and b can be found in Supplementary Fig. 6.\nC57BL/6 mice deprived of access to food overnight received an intraperitoneal injection of STZ (125 mg kg^−1) and a repeat injection a week later. Thereafter, their blood glucose levels were monitored and insufficient mice (blood glucose levels of under 400 mg dL^−1 or blood glucose levels after overnight food deprivation of under 200 mg dL^−1) were excluded from the experiment. Blood glucose levels were measured using Glutest Every (Sanwa Kagaku Kenkyusho, Nagoya, Japan) in blood samples collected from the tail vein.\nMice received the indicated oral dose of DS20060511 or vehicle at the same time as the intraperitoneal injection of insulin (Humulin) at the indicated dose. Blood glucose levels were measured using Glutest Every in blood samples collected from the tail vein at the indicated timepoints."}},
  "note": "Several values for one entry are separate records, joined by “and”; a condition that tells them apart may be missing. Equal values may be shown once.",
  "data": [
    {"smiles": "COc1ccc2c(C)c(C(=O)O)ccc2c1C1C2=C(CC(C)(C)CC2=O)OC2=C1C(=O)CC(C)(C)C2", "note": "[DS20060511]", "values": [
      {"measurement": "AMPK phosphorylation level in the skeletal muscle", "setting": "AMPKα", "result": "remained unchanged"},
      {"measurement": "Blood glucose", "setting": "STZ-treated C57BL/6 mice; 10 mg/kg po with 0.1 U kg−1 insulin ip, 0 min, 10 mg/kg", "result": "516 mg/dL and 430 mg/dL and 520 mg/dL and 493 mg/dL and 480 mg/dL and 526 mg/dL"},
      {"measurement": "Blood glucose", "setting": "STZ-treated C57BL/6 mice; 10 mg/kg with insulin, 20 min, 10 mg/kg", "result": "427 mg/dL and 401 mg/dL and 313 mg/dL and 397 mg/dL and 311 mg/dL and 432 mg/dL"},
      {"measurement": "Blood glucose", "setting": "STZ-treated C57BL/6 mice; 30 mg/kg po with 0.1 U kg−1 insulin ip, 0 min, 30 mg/kg", "result": "433 mg/dL and 472 mg/dL and 458 mg/dL and 427 mg/dL and 461 mg/dL and 483 mg/dL and 532 mg/dL"},
      {"measurement": "blood glucose levels, combined with insulin vs insulin alone (in words)", "setting": "STZ-treated C57BL/6 mice; STZ-treated mice, Fig. 4g", "result": "reduced to a greater degree"}
    ]}
  ]
}
